Measurements from the NIST ThermoML archive (doi:10.1016/j.fluid.2005.02.009).

Details: Liquid

CCOCCO [2-ethoxyethan-1-ol]
viscosity [mPa·s]
Details | 293.15 K | 303.15 K | 313.15 K | 323.15 K | 333.15 K | 343.15 K | 353.15 K
100 kPa | 2.073 | 1.663 | 1.346 | 1.117 | 0.941 | 0.804 | 0.695
20000 kPa | 2.417 | 1.922 | 1.599 | 1.32 | 1.081 | 0.939 | 0.829
40000 kPa | 2.776 | 2.21 | 1.834 | 1.529 | 1.236 | 1.078 | 0.953
60000 kPa | 3.145 | 2.512 | 2.071 | 1.743 | 1.408 | 1.221 | 1.068
80000 kPa | 3.509 | 2.816 | 2.308 | 1.931 | 1.592 | 1.362 | 1.172
100000 kPa | 3.859 | 3.115 | 2.543 | 2.13 | 1.787 | 1.5 | 1.265

CC(C)OCCO [2-isopropoxyethanol]
viscosity [mPa·s]
Details | 293.15 K | 303.15 K | 313.15 K | 323.15 K | 333.15 K | 343.15 K | 353.15 K
100 kPa | 2.38 | 1.87 | 1.506 | 1.228 | 1.024 | 0.864 | 0.739
20000 kPa | 2.939 | 2.284 | 1.861 | 1.485 | 1.25 | 1.046 | 0.927
40000 kPa | 3.493 | 2.691 | 2.186 | 1.731 | 1.48 | 1.236 | 1.09
60000 kPa | 4.073 | 3.123 | 2.512 | 2.002 | 1.72 | 1.445 | 1.236
80000 kPa | 4.661 | 3.566 | 2.838 | 2.296 | 1.966 | 1.669 | 1.368
100000 kPa | 5.241 | 4.008 | 3.162 | 2.611 | 2.212 | 1.903 | 1.536

COCCO [2-methoxyethan-1-ol]
viscosity [mPa·s]
Details | 293.15 K | 303.15 K | 313.15 K | 323.15 K | 333.15 K | 343.15 K | 353.15 K
100 kPa | 1.707 | 1.398 | 1.162 | 0.984 | 0.843 | 0.731 | 0.635
20000 kPa | 1.948 | 1.583 | 1.339 | 1.135 | 0.965 | 0.852 | 0.738
40000 kPa | 2.186 | 1.777 | 1.489 | 1.268 | 1.084 | 0.958 | 0.834
60000 kPa | 2.426 | 1.977 | 1.647 | 1.405 | 1.21 | 1.058 | 0.924
80000 kPa | 2.659 | 2.176 | 1.814 | 1.544 | 1.338 | 1.149 | 1.006
100000 kPa | 2.878 | 2.367 | 1.988 | 1.685 | 1.466 | 1.231 | 1.08
